Data reported in ChEMBL document CHEMBL3991601, “The target landscape of clinical kinase drugs” (Science, 2017).
Active and inactive are the calls of the source.

Experiments:
[1] = biological target: Dual specificity testis-specific protein kinase 2 (Homo sapiens, UniProt Q96S53)
[2] = biological target: T1, Calcium/calmodulin-dependent protein kinase type IV (Homo sapiens, UniProt Q16566)
T1 sequence (Q16566 whole entry): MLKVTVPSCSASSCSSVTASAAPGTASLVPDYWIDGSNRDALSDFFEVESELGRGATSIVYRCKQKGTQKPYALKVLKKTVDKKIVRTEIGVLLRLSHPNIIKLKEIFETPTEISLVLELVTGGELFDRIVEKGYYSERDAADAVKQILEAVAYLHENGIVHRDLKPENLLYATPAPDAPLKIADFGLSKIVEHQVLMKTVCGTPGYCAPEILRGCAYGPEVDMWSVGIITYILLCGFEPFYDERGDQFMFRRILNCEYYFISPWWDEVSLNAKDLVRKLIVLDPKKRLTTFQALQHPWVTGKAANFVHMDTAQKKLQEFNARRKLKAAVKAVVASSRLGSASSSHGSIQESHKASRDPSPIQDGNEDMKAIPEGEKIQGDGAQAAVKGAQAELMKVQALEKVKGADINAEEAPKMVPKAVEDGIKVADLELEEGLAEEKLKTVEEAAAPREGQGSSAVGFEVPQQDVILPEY

[3] = biological target: Dual specificity protein kinase CLK3 (Homo sapiens, UniProt P49761); type: subcellular, K-562, COLO 205, SK-N-BE(2) and MV-4-11, Cell lysate; settings: read-out: Kd apparent
[4] = biological target: Dual specificity protein kinase CLK1 (Homo sapiens, UniProt P49759)
[5] = biological target: MAP kinase-activated protein kinase 3 (Homo sapiens, UniProt Q16644)
Sequence of MAP kinase-activated protein kinase 3 (Q16644 whole entry): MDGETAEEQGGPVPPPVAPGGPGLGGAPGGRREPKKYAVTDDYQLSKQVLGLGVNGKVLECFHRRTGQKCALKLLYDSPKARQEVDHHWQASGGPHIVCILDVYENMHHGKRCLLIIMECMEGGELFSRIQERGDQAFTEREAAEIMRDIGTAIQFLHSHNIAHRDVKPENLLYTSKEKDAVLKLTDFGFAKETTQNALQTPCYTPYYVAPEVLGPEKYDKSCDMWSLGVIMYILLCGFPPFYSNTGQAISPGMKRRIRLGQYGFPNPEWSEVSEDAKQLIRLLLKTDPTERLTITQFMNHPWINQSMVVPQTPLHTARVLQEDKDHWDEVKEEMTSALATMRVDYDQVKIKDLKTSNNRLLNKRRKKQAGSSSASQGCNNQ

[6] = biological target: T2, Peroxisomal acyl-coenzyme A oxidase 1 (Homo sapiens, UniProt Q15067)
T2 sequence (Q15067 whole entry): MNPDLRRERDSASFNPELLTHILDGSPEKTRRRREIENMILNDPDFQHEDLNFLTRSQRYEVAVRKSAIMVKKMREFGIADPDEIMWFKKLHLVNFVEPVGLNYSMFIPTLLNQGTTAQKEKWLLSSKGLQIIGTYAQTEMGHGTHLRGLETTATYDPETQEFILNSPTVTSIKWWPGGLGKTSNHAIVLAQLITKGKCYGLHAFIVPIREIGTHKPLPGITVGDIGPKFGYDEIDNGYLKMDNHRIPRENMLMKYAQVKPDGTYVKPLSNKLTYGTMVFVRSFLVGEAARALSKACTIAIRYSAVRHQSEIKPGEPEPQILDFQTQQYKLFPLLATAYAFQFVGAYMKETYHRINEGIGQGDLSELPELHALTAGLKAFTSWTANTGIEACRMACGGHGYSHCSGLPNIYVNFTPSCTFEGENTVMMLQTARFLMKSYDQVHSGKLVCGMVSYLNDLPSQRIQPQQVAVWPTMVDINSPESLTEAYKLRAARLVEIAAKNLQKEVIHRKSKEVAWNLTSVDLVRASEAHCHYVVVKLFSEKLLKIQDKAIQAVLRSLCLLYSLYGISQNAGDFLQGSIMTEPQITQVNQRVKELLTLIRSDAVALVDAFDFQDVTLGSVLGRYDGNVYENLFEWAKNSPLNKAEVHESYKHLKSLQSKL

[7] = biological target: T3, Dual specificity mitogen-activated protein kinase kinase 5 (Homo sapiens, UniProt Q13163)
T3 sequence (Q13163 whole entry): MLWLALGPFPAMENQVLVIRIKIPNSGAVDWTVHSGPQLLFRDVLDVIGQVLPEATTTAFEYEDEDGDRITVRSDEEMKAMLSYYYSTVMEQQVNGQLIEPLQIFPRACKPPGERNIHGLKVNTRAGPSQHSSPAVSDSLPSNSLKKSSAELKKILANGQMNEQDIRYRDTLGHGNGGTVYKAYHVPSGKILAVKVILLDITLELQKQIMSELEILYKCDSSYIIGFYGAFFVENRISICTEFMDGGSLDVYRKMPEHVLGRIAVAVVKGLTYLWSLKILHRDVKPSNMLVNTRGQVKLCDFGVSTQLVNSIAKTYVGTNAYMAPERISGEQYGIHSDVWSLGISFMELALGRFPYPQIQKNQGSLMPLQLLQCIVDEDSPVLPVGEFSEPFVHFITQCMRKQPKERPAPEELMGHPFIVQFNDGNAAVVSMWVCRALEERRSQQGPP

[8] = biological target: Dual specificity testis-specific protein kinase 1 (Homo sapiens, UniProt Q15569)
[9] = biological target: T4, Serine/threonine-protein kinase NLK (Homo sapiens, UniProt Q9UBE8)
T4 sequence (Q9UBE8 whole entry): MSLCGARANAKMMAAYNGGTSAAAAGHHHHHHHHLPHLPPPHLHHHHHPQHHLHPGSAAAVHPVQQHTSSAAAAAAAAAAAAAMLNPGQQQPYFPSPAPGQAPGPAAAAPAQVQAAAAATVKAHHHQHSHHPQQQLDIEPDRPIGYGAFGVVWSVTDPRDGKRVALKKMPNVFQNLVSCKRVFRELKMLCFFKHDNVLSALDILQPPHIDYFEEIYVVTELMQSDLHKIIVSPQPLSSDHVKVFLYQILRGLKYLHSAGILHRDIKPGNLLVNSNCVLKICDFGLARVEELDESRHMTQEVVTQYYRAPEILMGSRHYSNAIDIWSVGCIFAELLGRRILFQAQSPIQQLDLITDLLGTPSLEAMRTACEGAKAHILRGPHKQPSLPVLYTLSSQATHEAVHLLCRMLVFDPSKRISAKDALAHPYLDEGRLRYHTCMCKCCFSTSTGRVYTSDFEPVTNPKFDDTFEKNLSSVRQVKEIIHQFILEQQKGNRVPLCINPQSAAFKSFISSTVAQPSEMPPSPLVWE

[10] = biological target: Protein kinase C theta type (Homo sapiens, UniProt Q04759)
[11] = biological target: Tyrosine-protein kinase Lck (Homo sapiens, UniProt P06239)
Sequence of Tyrosine-protein kinase Lck (P06239 whole entry): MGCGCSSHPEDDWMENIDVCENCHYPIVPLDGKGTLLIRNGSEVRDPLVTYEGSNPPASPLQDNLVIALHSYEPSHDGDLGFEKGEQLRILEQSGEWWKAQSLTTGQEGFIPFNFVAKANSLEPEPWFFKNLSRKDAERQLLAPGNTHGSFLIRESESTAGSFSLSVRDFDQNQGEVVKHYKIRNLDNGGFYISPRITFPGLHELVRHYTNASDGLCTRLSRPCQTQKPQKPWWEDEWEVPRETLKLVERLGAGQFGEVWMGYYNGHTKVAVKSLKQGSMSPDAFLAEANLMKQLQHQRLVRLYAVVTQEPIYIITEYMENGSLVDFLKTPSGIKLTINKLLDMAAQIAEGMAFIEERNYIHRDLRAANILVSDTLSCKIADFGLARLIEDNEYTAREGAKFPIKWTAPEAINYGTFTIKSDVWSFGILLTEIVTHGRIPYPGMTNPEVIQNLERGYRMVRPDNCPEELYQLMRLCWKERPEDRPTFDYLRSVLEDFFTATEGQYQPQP

Myosin-10 = Myosin-10 (Homo sapiens, UniProt P35580)
Sequence of Myosin-10 (P35580 whole entry): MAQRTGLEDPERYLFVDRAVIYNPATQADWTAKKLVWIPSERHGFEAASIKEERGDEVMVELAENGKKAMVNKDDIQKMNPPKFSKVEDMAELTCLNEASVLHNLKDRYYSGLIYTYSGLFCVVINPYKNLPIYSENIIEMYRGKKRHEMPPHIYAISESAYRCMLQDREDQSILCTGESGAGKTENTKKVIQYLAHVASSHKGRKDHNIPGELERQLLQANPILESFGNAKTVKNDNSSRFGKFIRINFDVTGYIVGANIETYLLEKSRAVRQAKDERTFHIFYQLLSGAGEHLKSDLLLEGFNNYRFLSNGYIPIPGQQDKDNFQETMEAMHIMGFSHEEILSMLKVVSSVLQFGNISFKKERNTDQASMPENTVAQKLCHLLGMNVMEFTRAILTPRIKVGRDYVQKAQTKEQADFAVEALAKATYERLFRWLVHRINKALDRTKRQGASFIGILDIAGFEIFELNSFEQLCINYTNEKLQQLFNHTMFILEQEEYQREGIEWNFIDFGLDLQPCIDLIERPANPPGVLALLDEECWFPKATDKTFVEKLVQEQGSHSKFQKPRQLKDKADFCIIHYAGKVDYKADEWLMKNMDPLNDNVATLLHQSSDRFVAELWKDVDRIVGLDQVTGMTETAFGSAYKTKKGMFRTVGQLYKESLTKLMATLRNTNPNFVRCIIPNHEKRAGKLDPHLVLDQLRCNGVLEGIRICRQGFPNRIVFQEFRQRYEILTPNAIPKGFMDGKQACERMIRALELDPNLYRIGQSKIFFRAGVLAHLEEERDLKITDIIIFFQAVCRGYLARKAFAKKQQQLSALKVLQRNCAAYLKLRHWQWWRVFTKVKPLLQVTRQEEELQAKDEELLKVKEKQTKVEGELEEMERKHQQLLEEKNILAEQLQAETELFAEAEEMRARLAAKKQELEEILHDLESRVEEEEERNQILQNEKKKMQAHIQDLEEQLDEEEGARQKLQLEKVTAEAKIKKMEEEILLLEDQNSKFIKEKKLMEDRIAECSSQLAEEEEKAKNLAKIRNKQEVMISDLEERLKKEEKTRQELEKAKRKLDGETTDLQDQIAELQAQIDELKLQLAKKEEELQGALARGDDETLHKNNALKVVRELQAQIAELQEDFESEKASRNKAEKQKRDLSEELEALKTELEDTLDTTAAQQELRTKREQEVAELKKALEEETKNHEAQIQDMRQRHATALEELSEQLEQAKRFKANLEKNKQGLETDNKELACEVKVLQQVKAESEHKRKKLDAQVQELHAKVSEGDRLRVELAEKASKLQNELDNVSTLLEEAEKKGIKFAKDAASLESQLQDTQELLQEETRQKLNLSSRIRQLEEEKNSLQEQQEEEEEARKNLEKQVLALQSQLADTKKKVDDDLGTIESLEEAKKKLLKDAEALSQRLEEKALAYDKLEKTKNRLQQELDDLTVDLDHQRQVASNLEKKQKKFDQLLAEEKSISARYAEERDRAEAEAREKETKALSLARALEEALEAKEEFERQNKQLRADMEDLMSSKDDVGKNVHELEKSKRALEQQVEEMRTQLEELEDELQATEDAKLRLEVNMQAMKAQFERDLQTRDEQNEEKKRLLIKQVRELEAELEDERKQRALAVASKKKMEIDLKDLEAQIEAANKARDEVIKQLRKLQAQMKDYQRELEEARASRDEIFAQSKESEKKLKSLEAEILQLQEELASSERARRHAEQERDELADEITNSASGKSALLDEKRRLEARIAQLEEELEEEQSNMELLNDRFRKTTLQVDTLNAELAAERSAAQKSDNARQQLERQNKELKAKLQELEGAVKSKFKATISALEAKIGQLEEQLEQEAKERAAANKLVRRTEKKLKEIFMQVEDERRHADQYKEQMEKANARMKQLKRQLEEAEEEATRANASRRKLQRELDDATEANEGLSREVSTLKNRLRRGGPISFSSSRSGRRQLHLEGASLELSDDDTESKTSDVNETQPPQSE

[12] = biological target: G protein-coupled receptor kinase 6 (Homo sapiens, UniProt P43250)
Sequence of G protein-coupled receptor kinase 6 (P43250 whole entry): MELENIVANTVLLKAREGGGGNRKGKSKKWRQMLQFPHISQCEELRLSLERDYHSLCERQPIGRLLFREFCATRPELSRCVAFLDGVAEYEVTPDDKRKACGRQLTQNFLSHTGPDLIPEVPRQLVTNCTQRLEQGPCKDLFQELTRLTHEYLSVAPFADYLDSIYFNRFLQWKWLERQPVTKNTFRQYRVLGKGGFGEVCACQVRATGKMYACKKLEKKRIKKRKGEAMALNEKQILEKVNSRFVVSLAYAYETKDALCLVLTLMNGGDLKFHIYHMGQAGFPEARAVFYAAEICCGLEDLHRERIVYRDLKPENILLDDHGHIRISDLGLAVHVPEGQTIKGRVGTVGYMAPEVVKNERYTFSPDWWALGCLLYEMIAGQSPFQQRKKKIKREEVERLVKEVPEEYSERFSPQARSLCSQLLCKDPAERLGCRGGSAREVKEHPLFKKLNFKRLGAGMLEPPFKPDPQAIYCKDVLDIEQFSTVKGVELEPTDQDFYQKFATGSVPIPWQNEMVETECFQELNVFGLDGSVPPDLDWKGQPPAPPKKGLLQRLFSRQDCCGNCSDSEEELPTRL

Focal adhesion kinase 1 = Focal adhesion kinase 1 (Homo sapiens, UniProt Q05397)
Sequence of Focal adhesion kinase 1 (Q05397 whole entry): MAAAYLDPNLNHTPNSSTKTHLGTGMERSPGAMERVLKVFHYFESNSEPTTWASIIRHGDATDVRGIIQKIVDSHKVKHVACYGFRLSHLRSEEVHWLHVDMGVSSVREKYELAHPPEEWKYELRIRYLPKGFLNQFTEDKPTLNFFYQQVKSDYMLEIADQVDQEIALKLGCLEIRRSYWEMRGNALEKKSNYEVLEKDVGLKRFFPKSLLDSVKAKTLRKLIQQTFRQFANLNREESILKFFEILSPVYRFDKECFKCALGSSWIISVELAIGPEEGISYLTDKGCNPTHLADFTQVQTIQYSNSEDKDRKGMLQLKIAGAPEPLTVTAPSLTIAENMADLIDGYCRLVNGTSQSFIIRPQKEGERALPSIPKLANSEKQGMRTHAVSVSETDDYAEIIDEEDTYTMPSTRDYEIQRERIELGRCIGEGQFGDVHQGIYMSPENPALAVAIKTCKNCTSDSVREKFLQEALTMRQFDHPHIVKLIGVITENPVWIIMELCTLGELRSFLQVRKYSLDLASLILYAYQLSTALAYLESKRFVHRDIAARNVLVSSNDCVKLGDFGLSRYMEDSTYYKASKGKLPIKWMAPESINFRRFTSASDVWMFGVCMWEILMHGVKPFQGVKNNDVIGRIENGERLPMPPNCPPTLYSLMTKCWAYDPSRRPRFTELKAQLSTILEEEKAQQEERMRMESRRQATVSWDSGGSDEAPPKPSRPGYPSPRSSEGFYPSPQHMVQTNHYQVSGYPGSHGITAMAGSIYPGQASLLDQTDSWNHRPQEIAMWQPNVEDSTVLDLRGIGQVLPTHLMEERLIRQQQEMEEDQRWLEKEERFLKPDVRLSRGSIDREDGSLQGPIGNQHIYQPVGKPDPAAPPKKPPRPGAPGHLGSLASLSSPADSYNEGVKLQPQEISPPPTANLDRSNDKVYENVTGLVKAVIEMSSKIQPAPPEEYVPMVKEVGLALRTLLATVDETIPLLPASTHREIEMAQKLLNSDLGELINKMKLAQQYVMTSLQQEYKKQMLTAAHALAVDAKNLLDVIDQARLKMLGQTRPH

[13] = biological target: Mitogen-activated protein kinase 14 (Homo sapiens, UniProt Q16539)
Sequence of Mitogen-activated protein kinase 14 (Q16539 whole entry): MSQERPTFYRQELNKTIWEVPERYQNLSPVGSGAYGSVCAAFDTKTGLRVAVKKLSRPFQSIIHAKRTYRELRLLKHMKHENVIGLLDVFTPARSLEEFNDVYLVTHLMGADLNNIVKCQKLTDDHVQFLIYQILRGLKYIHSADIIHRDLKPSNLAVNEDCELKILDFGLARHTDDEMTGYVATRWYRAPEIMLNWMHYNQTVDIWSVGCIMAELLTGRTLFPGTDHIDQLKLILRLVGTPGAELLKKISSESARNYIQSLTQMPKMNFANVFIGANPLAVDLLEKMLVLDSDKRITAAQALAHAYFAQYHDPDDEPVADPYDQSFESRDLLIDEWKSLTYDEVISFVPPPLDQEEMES

[14] = biological target: Dual specificity protein kinase CLK2 (Homo sapiens, UniProt P49760)
[15] = biological target: Uncharacterized aarF domain-containing protein kinase 5 (Homo sapiens, UniProt Q3MIX3)
Further: in the data inactive means no Kd found up to 30 µM.

Row | Kd [1] | Kd [2] | Kd [3] | Kd [4] | Kd [5] | Kd [6] | Kd [7] | Kd [8] | Kd [9] | Kd [10] | Kd [11] | Kd (Myosin-10) | Kd [12] | Kd (Focal adhesion kinase 1) | Kd [13] | Kd [14] | Kd [15] | SMILES
1 | > 30 µM (inactive) | > 30 µM (inactive) | > 30 µM (inactive) | > 30 µM (inactive) | > 30 µM (inactive) | > 30 µM (inactive) | 0.082 µM (active) | > 30 µM (inactive) | > 30 µM (inactive) | – | – | – | – | – | – | – | – | CCN(CCCOc1ccc2c(Nc3cc(CC(=O)Nc4cccc(F)c4)n[nH]3)ncnc2c1)CCOP(=O)(O)O [BARASERTIB]
2 | – | > 30 µM (inactive) | – | > 30 µM (inactive) | > 30 µM (inactive) | > 30 µM (inactive) | > 30 µM (inactive) | > 30 µM (inactive) | > 30 µM (inactive) | 0.006 µM | > 30 µM (inactive) | > 30 µM (inactive) | > 30 µM (inactive) | > 30 µM (inactive) | > 30 µM (inactive) | > 30 µM (inactive) | – | FC(F)(F)c1ccc(CNc2ccc(Cc3c[nH]c4ncc(Cl)cc34)cn2)cn1 [PEXIDARTINIB]
3 | > 30 µM (inactive) | > 30 µM (inactive) | – | > 30 µM (inactive) | > 30 µM (inactive) | > 30 µM (inactive) | > 30 µM (inactive) | > 30 µM (inactive) | > 30 µM (inactive) | > 30 µM (inactive) | > 30 µM (inactive) | – | > 30 µM (inactive) | > 30 µM (inactive) | > 30 µM (inactive) | > 30 µM (inactive) | – | C[C@@H]1COC(Nc2ccc3ncnc(Nc4ccc(OCc5nccs5)c(Cl)c4)c3c2)=N1 [VARLITINIB]
4 | > 30 µM (inactive) | > 30 µM (inactive) | 0.01 µM (active) | – | 0.026 µM (active) | – | > 30 µM (inactive) | > 30 µM (inactive) | > 30 µM (inactive) | – | > 30 µM (inactive) | – | – | > 30 µM (inactive) | > 30 µM (inactive) | – | – | O=C(O)c1ccc2c(c1)nc(Nc1cccc(Cl)c1)c1ccncc12 [SILMITASERTIB]
5 | > 30 µM (inactive) | > 30 µM (inactive) | – | > 30 µM (inactive) | > 30 µM (inactive) | > 30 µM (inactive) | > 30 µM (inactive) | > 30 µM (inactive) | > 30 µM (inactive) | > 30 µM (inactive) | > 30 µM (inactive) | – | – | > 30 µM (inactive) | > 30 µM (inactive) | > 30 µM (inactive) | > 30 µM (inactive) | COc1cc2ncnc3c2cc1OCCCCCN(C)Cc1ccc(Br)cc1N3 [JNJ-26483327]
6 | – | > 30 µM (inactive) | – | > 30 µM (inactive) | > 30 µM (inactive) | > 30 µM (inactive) | > 30 µM (inactive) | > 30 µM (inactive) | > 30 µM (inactive) | > 30 µM (inactive) | > 30 µM (inactive) | – | – | > 30 µM (inactive) | 0.729 µM (active) | > 30 µM (inactive) | > 30 µM (inactive) | O[C@H]1CC[C@H](Nc2ncc3nc(Nc4c(F)cc(F)cc4F)n([C@H]4CCOC4)c3n2)CC1 [TANZISERTIB]
7 | > 30 µM (inactive) | – | – | – | > 30 µM (inactive) | – | – | – | – | – | – | – | > 30 µM (inactive) | – | – | – | – | C[C@@]1(C(=O)Nc2ccc(F)nc2)CCCN1c1nc(Nc2cc(C3CC3)n[nH]2)c2cccn2n1 [BMS-754807]
8 | – | > 30 µM (inactive) | – | > 30 µM (inactive) | > 30 µM (inactive) | > 30 µM (inactive) | > 30 µM (inactive) | > 30 µM (inactive) | > 30 µM (inactive) | – | – | > 30 µM (inactive) | – | – | – | – | > 30 µM (inactive) | Cn1c(=O)n(-c2ccc(C(C)(C)C#N)cc2)c2c3cc(-c4cnc5ccccc5c4)ccc3ncc21 [DACTOLISIB]
9 | > 30 µM (inactive) | > 30 µM (inactive) | – | > 30 µM (inactive) | > 30 µM (inactive) | > 30 µM (inactive) | > 30 µM (inactive) | > 30 µM (inactive) | > 30 µM (inactive) | > 30 µM (inactive) | 1.47 µM (active) | > 30 µM (inactive) | – | > 30 µM (inactive) | > 30 µM (inactive) | > 30 µM (inactive) | > 30 µM (inactive) | Cc1cc(-c2cc(OC(=O)c3ccccc3)ccc2Cl)cc2nnc(Nc3ccc(OCCN4CCCC4)cc3)nc12 [TG100-801]
10 | – | > 30 µM (inactive) | – | > 30 µM (inactive) | > 30 µM (inactive) | > 30 µM (inactive) | 4.91 µM (active) | – | 3.33 µM | > 30 µM (inactive) | > 30 µM (inactive) | > 30 µM (inactive) | > 30 µM (inactive) | > 30 µM (inactive) | > 30 µM (inactive) | > 30 µM (inactive) | – | COc1cccc2cc(-c3nc([C@H]4CC[C@H](C(=O)O)CC4)n4ncnc(N)c34)[nH]c12 [OSI-027]
11 | – | – | – | – | > 30 µM (inactive) | > 30 µM (inactive) | – | – | – | – | – | > 30 µM (inactive) | – | – | – | – | > 30 µM (inactive) | CN(C)C/C=C/C(=O)Nc1cc2c(Nc3ccc(F)c(Cl)c3)ncnc2cc1O[C@H]1CCOC1 [AFATINIB]
12 | > 30 µM (inactive) | > 30 µM (inactive) | – | > 30 µM (inactive) | > 30 µM (inactive) | > 30 µM (inactive) | > 30 µM (inactive) | > 30 µM (inactive) | > 30 µM (inactive) | > 30 µM (inactive) | > 30 µM (inactive) | – | > 30 µM (inactive) | > 30 µM (inactive) | > 30 µM (inactive) | > 30 µM (inactive) | > 30 µM (inactive) | c1cc(OCCN2CCCCC2)cc(-c2n[nH]c3ccc(-c4nc[nH]n4)cc23)c1 [CC-401]
